Each structure is given as a SMILES string.

A word on the IC50: it is the point on the concentration scale where inhibition reaches its midpoint.

For the assay, the target named is T1, human FSH receptor (Homo sapiens, UniProt P23945).
T1 construct: expressed in transfected cells; host or cells: CHO cells (hFSHR clone 16)
T1 sequence (P23945 18-695): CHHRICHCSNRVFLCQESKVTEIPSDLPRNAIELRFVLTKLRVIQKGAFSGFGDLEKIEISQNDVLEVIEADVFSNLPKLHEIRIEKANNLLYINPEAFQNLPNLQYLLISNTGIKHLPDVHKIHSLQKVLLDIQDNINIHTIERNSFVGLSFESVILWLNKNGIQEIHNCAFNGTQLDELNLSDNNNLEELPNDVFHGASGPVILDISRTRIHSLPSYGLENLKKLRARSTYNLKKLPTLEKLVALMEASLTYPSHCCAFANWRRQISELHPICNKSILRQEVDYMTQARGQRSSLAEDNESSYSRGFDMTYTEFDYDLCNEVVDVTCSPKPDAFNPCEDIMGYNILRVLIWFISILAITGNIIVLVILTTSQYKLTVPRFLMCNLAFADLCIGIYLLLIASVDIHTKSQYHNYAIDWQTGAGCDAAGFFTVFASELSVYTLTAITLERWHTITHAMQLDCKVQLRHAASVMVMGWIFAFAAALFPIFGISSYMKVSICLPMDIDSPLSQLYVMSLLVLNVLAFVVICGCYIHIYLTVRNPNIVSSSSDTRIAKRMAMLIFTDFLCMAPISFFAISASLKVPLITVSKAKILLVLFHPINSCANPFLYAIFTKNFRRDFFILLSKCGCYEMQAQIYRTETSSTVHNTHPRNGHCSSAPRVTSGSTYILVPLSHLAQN
Description: HTRF assay for measuring cAMP in cells (FSH-antagonistic effect). The class given is cell-based. Conditions: hFSHR clone 16 cells (CHO cells stably transfected with the human FSH receptor), in the presence of 1e-9 mol/l hFSH, 37° C. for 2 h. As to the method:
HTRF Assay for Measuring cAMP in Cells
The method is based on a competitive immunoassay between native cAMP, which has been produced by the cells, and cAMP which is labelled with cAMPD2 conjugate. The tracer binding was visualized by a monoclonal antibody, anti-cAMP labelled with cryptate [HTRF=homogeneous time-resolved fluorescence].
The specific signal is inversely proportional to the cAMP concentration of the samples employed.
The 665 nm/620 nm fluorescence ratio was evaluated.
Materials used: 96-well plates for the tissue culture, 96-well plates with black edge and black base (e.g. Fluotrac 600 from Greiner), 96-well plates for the substance dilutions of polypropylene and cAMP Femtomolar (4000 wells Kit, CIS Bio International # 62AM5PEJ).
Reagent used: BSA (bovine serum albumin) Fraction V protease-free, IBMX (3-isobutyl-1-methylxanthine), hFSH (human follicle stimulating hormone), Triton X-100 analytical grade, potassium fluoride analytical grade, G 418 (Geneticin) and Accutase.
Buffer 1 (washing and testing buffer) contained PBS, 1 mM CaCl2, 1 mM MgCl2, 0.2% glucose; 0.1% BSA, 1 mM IBMX.
Buffer 2 (2× lysis buffer) contained 1% Triton X-100 in PBS (without CaCl2 and MgCl2).
Buffer 3 (assay buffer) contained 50 mM potassium phosphate buffer (pH 7.0); 800 mM potassium fluoride; 0.2% BSA (always added fresh).
On day 1, the cells were seeded in 96-well plates (3×10^4 cells per well hFSHR clone 16 cells (CHO cells stably transfected with the human FSH receptor in 150 μl of medium). The next day, test substance dilutions were made up. For this purpose, all the substances were diluted in ice-cold buffer 1 (with or without hFSH), and the substance dilutions were placed on ice until applied to the cells. The cell supernatant was then aspirated off, and the cells were washed 2× with 200 μl of buffer 1. The cells were treated with 60 μl of the appropriate substance concentrations at 37° C. for 2 h. The cells were then lysed with 60 μl of buffer 2 (put onto the supernatant) (on a plate shaker at RT for 30 min). The test conjugates (cAMP-D2 and anti-cAMP cryptate, CIS Bio) were diluted in buffer 3 in accordance with the manufacturers' information. The actual mixture for measurement was pipetted into a black 96-well plate (in each case 15 μl of the cell lysate diluted with 35 μl of buffer 1; firstly 25 μl of cAMP-D2 conjugate were pipetted and, after 10 min, 25 μl of the anti-cAMP cryptate were added). This is followed by incubation at RT for 90 minutes. The measurement was carried out in a PheraStar (BMG).
Dose-effect curve (hFSH) for the human receptor: 1e-8, 3e-9, 1e-9, 3e-10, 1e-10, 3e-11, 1e-11, 3e-12 mol/l.
The test substances were employed in suitable dilutions in the absence (test for agonism) and in the presence of 1e-9 mol/l hFSH.
The values of the well ratio were averaged and then entered directly in SigmaPlot versus the concentrations. The maximum and minimum values were determined for each plate, and half the difference is to be regarded as IC50.
On to `CNC(=O)c1cccc(C#Cc2ccc(Cl)c(C(=O)NC(CO)Cc3c[nH]c4cc(F)ccc34)c2)c1` (centres unmarked) [Example 83, 2-Chloro-N-[2-(6-fluoro-1H-indol-3-yl)-1-hydroxymethyl-ethyl]-5-(3-methylcarbamoyl-phenylethynyl)-benzamide], for which the IC50 turned out to be 700 nM. Turning to `CC(C)Oc1ccc(C#Cc2ccc(N3CCNC3=O)cc2)cc1C(=O)N[C@@H](CO)Cc1c[nH]c2ccccc12` [Example 146, N-[(R)-1-Hydroxymethyl-2-(1H-indol-3-yl)-ethyl]-2-isopropoxy-5-[4-(2-oxo-imidazolidin-1-yl)-phenylethynyl]-benzamide], the IC50 turned out to be 70 nM.

For the molecule `CC(C)Oc1ccc(C#Cc2ccc(C(=O)O)o2)cc1C(=O)N[C@@H](CO)Cc1c[nH]c2ccccc12` [Example 88, 5-{3-[(R)-1-Hydroxymethyl-2-(1H-indol-3-yl)-ethylcarbamoyl]-4-isopropoxy-phenylethynyl}-furan-2-carboxylic acid], the IC50 worked out at 60 nM.

On to `CNC(=O)CCCc1ccc(C#Cc2ccc(OC(C)C)c(C(=O)N[C@@H](CO)Cc3c[nH]c4ccccc34)c2)cc1` [Example 70, N-[(R)-1-Hydroxymethyl-2-(1H-indol-3-yl)-ethyl]-2-isopropoxy-5-[4-(3-methylcarbamoyl-propyl)-phenylethynyl]-benzamide], for which the concentration for half-maximal inhibition (IC50) came to 45 nM.

With `CC(C)Oc1ccc(C#Cc2ccc(N3CCCC3=O)cc2)cc1C(=O)N[C@@H](CO)Cc1c[nH]c2ccccc12` [Example 124, N-[(R)-1-Hydroxymethyl-2-(1H-indol-3-yl)-ethyl]-2-isopropoxy-5-[4-(2-oxo-pyrrolidin-1-yl)-phenylethynyl]-benzamide], the half-inhibitory concentration (IC50) was determined as 80 nM. For `CC(C)Oc1ccc(C#Cc2cnc(N3CCOCC3)nc2)cc1C(=O)N[C@@H](CO)Cc1c[nH]c2ccccc12` [Example 145, N-[(R)-1-Hydroxymethyl-2-(1H-indol-3-yl)-ethyl]-2-isopropoxy-5-(2-morpholin-4-yl-pyrimidin-5-ylethynyl)-benzamide], the IC50 is 300 nM. As for `COC(=O)CCCCCNC(=O)c1ccc(C#Cc2ccc(OC(C)C)c(C(=O)N[C@@H](CO)Cc3c[nH]c4ccccc34)c2)cc1` [Example 171, 6-(4-{3-[(R)-1-Hydroxymethyl-2-(1H-indol-3-yl)-ethylcarbamoyl]-4-isopropoxy-phenylethynyl}-benzoylamino)-hexanoic acid methyl ester], the IC50 was 25 nM.

Take `CNC(=O)c1cccc(C#Cc2ccc(Cl)c(C(=O)N[C@@H](CO)Cc3c[nH]c4ccccc34)c2)c1` [Example 79, 2-Chloro-N-[(R)-2-hydroxy-1-(1H-indol-3-ylmethyl)-ethyl]-5-(3-methylcarbamoyl-phenylethynyl)-benzamide]: the IC50 came to 3500 nM. For the molecule `CC(C)Oc1ccc(C#Cc2ccccc2)cc1C(=O)NC(CO)Cc1c[nH]c2cc(F)ccc12` (centres unmarked) [Example 75, N-[2-(6-Fluoro-1H-indol-3-yl)-1-hydroxymethyl-ethyl]-2-isopropoxy-5-phenylethynyl-benzamide], the half-maximal inhibitory concentration (IC50) was found to be 100 nM. As for `CC(C)Oc1ccc(C#Cc2cccc(-c3nnn[nH]3)c2)cc1C(=O)N[C@@H](CO)Cc1c[nH]c2ccccc12` [Example 148, N-[(R)-2-Hydroxy-1-(1H-indol-3-ylmethyl)-ethyl]-2-isopropoxy-5-[3-(1H-tetrazol-5-yl)-phenylethynyl]-benzamide], the IC50 was found to be 30 nM. Take `COC(=O)CCNC(=O)c1cccc(C#Cc2ccc(OC(C)C)c(C(=O)N[C@@H](CO)Cc3c[nH]c4ccccc34)c2)c1` [Example 165, 3-(3-{3-[(R)-1-Hydroxymethyl-2-(1H-indol-3-yl)-ethylcarbamoyl]-4-isopropoxy-phenylethynyl}-benzoylamino)-propionic acid methyl ester]: the half-inhibitory concentration (IC50) was 15 nM. Consider `CC(C)Oc1ccc(C#Cc2ccc(-c3ccccc3)cc2)cc1C(=O)N[C@@H](CO)Cc1c[nH]c2ccccc12` [Example 111, 5-Biphenyl-4-ylethynyl-N-[(R)-1-hydroxymethyl-2-(1H-indol-3-yl)-ethyl]-2-isopropoxy-benzamide], for which the IC50 amounted to 2000 nM. On to `O=C(N[C@@H](CO)Cc1c[nH]c2ccccc12)c1cccc(C#Cc2ccccn2)c1` [Example 160, N-[(R)-1-Hydroxymethyl-2-(1H-indol-3-yl)-ethyl]-3-pyridin-2-ylethynyl-benzamide], for which the IC50 was found to be 6000 nM.

As for `CC(C)Oc1ccc(C#Cc2ccc3c(c2)C(=O)NCC3)cc1C(=O)N[C@@H](CO)Cc1c[nH]c2ccccc12` [Example 68, N-[(R)-1-Hydroxymethyl-2-(1H-indol-3-yl)-ethyl]-2-isopropoxy-5-(1-oxo-1,2,3,4-tetrahydro-isoquinolin-7-ylethynyl)-benzamide], the half-maximal inhibitory concentration (IC50) was 30 nM. Take `CC(C)Oc1ccc(C#Cc2ccc(N3CCNCC3)cc2)cc1C(=O)N[C@@H](CO)Cc1c[nH]c2ccccc12` [Example 140, N-[(R)-1-Hydroxymethyl-2-(1H-indol-3-yl)-ethyl]-2-isopropoxy-5-(4-piperazin-1-yl-phenylethynyl)-benzamide]: the concentration for half-maximal inhibition (IC50) turned out to be 3500 nM.

Take `COc1ccc(C#Cc2ccc(OC(C)C)c(C(=O)N[C@@H](CO)Cc3c[nH]c4ccccc34)c2)cc1F` [Example 30, 5-(3-Fluoro-4-methoxy-phenylethynyl)-N-[(R)-2-hydroxy-1-(1H-indol-3-ylmethyl)-ethyl]-2-isopropoxy-benzamide]: the IC50 was found to be 150 nM. Next, `CC(C)Oc1ccc(C#Cc2ccc(C(=O)NCCC(N)=O)cc2)cc1C(=O)N[C@@H](CO)Cc1c[nH]c2ccccc12` [Example 177, 5-[4-(2-Carbamoyl-ethylcarbamoyl)-phenylethynyl]-N-[(R)-1-hydroxymethyl-2-(1H-indol-3-yl)-ethyl]-2-isopropoxy-benzamide]: 20 nM; `CC(C)Oc1ccc(C#Cc2ccc(C(=O)NCCN3CCNC(=O)C3)cc2)cc1C(=O)N[C@@H](CO)Cc1c[nH]c2ccccc12` [Example 173, N-[(R)-1-Hydroxymethyl-2-(1H-indol-3-yl)-ethyl]-2-isopropoxy-5-{4-[2-(3-oxo-piperazin-1-yl)-ethylcarbamoyl]-phenylethynyl}-benzamide]: 35 nM. The figure for `CNC(=O)c1ccc(C#Cc2cccc(C(=O)N[C@@H](CO)Cc3c[nH]c4ccccc34)c2)cc1` [Example 72, N-[(R)-1-Hydroxymethyl-2-(1H-indol-3-yl)-ethyl]-5-(4-methylcarbamoyl-phenylethynyl)-benzamide] is 2500 nM.

With `Cc1cc(C)cc(C#Cc2ccc(OC(C)C)c(C(=O)N[C@@H](CO)Cc3c[nH]c4ccccc34)c2)c1` [Example 40, 5-(3,5-Dimethyl-phenylethynyl)-N-[(R)-1-hydroxymethyl-2-(1H-indol-3-yl)-ethyl]-2-isopropoxy-benzamide], the IC50 turned out to be 500 nM.
